Laboratory results as given in ChEMBL document CHEMBL4507285, “Data for DCP probe MRL-SYKi” (2021).
Activity calls are given as the source filed them. No cut-off for these calls is given here.

Columns and labels:
[1] = molecular target: STE20-like serine/threonine-protein kinase (Homo sapiens) (UniProt Q9H2G2); conditions: Compound concentration 100.0 nM
[2] = molecular target: NT-3 growth factor receptor (Homo sapiens, UniProt Q16288); conditions: Compound concentration 100.0 nM
[3] = system: Epidermal growth factor receptor (Homo sapiens), P00533 [L858R]; conditions: Compound concentration 100.0 nM
[4] = molecular target: Tyrosine-protein kinase Fer (Homo sapiens, UniProt P16591); conditions: Compound concentration 100.0 nM
[5] = system: Tyrosine-protein kinase ABL1 (Homo sapiens), P00519 [T315I]; conditions: Compound concentration 100.0 nM
[6] = system: Epidermal growth factor receptor (Homo sapiens), P00533 [T790M]; conditions: Compound concentration 100.0 nM
[7] = molecular target: Serine/threonine-protein kinase TAO3 (Homo sapiens) (UniProt Q9H2K8); conditions: Compound concentration 100.0 nM
[8] = molecular target: Ribosomal protein S6 kinase alpha-2 (Homo sapiens) (UniProt Q15349); conditions: Compound concentration 100.0 nM
[9] = molecular target: Casein kinase I isoform delta (Homo sapiens) (UniProt P48730); conditions: Compound concentration 100.0 nM
[10] = system: Phosphatidylinositol 4,5-bisphosphate 3-kinase catalytic subunit alpha isoform (Homo sapiens), P42336 [M1043I]; conditions: Compound concentration 100.0 nM
Mast cell = experiment: Human Mast Cell degranulation; format: cell-based
[11] = molecular target: Kappa-type opioid receptor (Homo sapiens) (UniProt P41145); conditions: Compound concentration 10.0 uM
[12] = molecular target: Homeodomain-interacting protein kinase 1 (Homo sapiens) (UniProt Q86Z02); conditions: Compound concentration 100.0 nM
[13] = molecular target: Insulin-like growth factor 1 receptor (Homo sapiens) (UniProt P08069); conditions: Compound concentration 100.0 nM
[14] = molecular target: Activin receptor type-2A (Homo sapiens) (UniProt P27037); conditions: Compound concentration 100.0 nM
[15] = molecular target: Mitogen-activated protein kinase 14 (Homo sapiens) (UniProt Q16539); conditions: Compound concentration 100.0 nM
[16] = molecular target: Tyrosine-protein kinase JAK2 (Homo sapiens, UniProt O60674); conditions: Compound concentration 100.0 nM
[17] = molecular target: Ephrin type-B receptor 3 (Homo sapiens) (UniProt P54753); conditions: Compound concentration 100.0 nM
[18] = molecular target: Serine/threonine-protein kinase 32A (Homo sapiens) (UniProt Q8WU08); conditions: Compound concentration 100.0 nM
[19] = molecular target: Serine/threonine-protein kinase 4 (Homo sapiens) (UniProt Q13043); conditions: Compound concentration 100.0 nM
[20] = molecular target: Wee1-like protein kinase (Homo sapiens) (UniProt P30291); conditions: Compound concentration 100.0 nM
[21] = molecular target: Protein kinase C eta type (Homo sapiens) (UniProt P24723); conditions: Compound concentration 100.0 nM
[22] = molecular target: D(4) dopamine receptor (Homo sapiens) (UniProt P21917); conditions: Compound concentration 10.0 uM
[23] = molecular target: Dual specificity mitogen-activated protein kinase kinase 6 (Homo sapiens) (UniProt P52564); conditions: Compound concentration 100.0 nM
[24] = molecular target: Serine/threonine-protein kinase MRCK gamma (Homo sapiens) (UniProt Q6DT37); conditions: Compound concentration 100.0 nM
[25] = molecular target: Megakaryocyte-associated tyrosine-protein kinase (Homo sapiens) (UniProt P42679); conditions: Compound concentration 100.0 nM
[26] = molecular target: Serine/threonine-protein kinase 16 (Homo sapiens) (UniProt O75716); conditions: Compound concentration 100.0 nM
[27] = system: Phosphatidylinositol 4,5-bisphosphate 3-kinase catalytic subunit alpha isoform (Homo sapiens), P42336 [Q546K]; conditions: Compound concentration 100.0 nM
[28] = system: Proto-oncogene tyrosine-protein kinase receptor Ret (Homo sapiens), P07949 [V804L]; conditions: Compound concentration 100.0 nM
[29] = system: Epidermal growth factor receptor (Homo sapiens), P00533 [UNDEFINED MUTATION]; conditions: Compound concentration 100.0 nM
[30] = molecular target: Sodium-dependent serotonin transporter (Homo sapiens) (UniProt P31645); conditions: Compound concentration 10.0 uM
[31] = molecular target: 5-hydroxytryptamine receptor 3A (Homo sapiens) (UniProt P46098); conditions: Compound concentration 10.0 uM
[32] = molecular target: Cyclin-dependent kinase 4 (Homo sapiens) (UniProt P11802); conditions: Compound concentration 100.0 nM
[33] = molecular target: Serine/threonine-protein kinase PLK2 (Homo sapiens) (UniProt Q9NYY3); conditions: Compound concentration 100.0 nM
[34] = molecular target: Serine/threonine-protein kinase NIM1 (Homo sapiens) (UniProt Q8IY84); conditions: Compound concentration 100.0 nM
[35] = molecular target: Inhibitor of nuclear factor kappa-B kinase subunit epsilon (Homo sapiens) (UniProt Q14164); conditions: Compound concentration 100.0 nM
[36] = molecular target: D(1B) dopamine receptor (Homo sapiens) (UniProt P21918); conditions: Compound concentration 10.0 uM
[37] = molecular target: 5-hydroxytryptamine receptor 1A (Homo sapiens) (UniProt P08908); conditions: Compound concentration 10.0 uM
[38] = molecular target: Casein kinase I isoform epsilon (Homo sapiens) (UniProt P49674); conditions: Compound concentration 100.0 nM
[39] = molecular target: Phosphatidylinositol 4-phosphate 5-kinase type-1 gamma (Homo sapiens) (UniProt O60331); conditions: Compound concentration 100.0 nM
[40] = molecular target: Alpha-2A adrenergic receptor (Homo sapiens) (UniProt P08913); conditions: Compound concentration 10.0 uM
[41] = molecular target: Ephrin type-B receptor 6 (Homo sapiens) (UniProt O15197); conditions: Compound concentration 100.0 nM
[42] = molecular target: Mitogen-activated protein kinase 13 (Homo sapiens) (UniProt O15264); conditions: Compound concentration 100.0 nM
[43] = molecular target: Focal adhesion kinase 1 (Homo sapiens) (UniProt Q05397); conditions: Compound concentration 100.0 nM
[44] = molecular target: Ephrin type-A receptor 8 (Homo sapiens) (UniProt P29322); conditions: Compound concentration 100.0 nM
[45] = molecular target: Phosphatidylinositol 4-phosphate 3-kinase C2 domain-containing subunit beta (Homo sapiens) (UniProt O00750); conditions: Compound concentration 100.0 nM

Sequence of Mitogen-activated protein kinase 14 (Homo sapiens) (Q16539 whole entry): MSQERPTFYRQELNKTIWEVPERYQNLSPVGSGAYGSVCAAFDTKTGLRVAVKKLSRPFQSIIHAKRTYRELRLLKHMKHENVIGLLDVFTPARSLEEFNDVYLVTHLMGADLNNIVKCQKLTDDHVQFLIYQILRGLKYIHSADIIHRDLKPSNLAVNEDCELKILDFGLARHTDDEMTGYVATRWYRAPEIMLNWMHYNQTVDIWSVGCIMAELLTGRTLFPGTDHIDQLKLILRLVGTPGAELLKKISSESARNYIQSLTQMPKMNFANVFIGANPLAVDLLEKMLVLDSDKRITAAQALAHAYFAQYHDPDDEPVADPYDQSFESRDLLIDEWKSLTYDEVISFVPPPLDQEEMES
Sequence of Casein kinase I isoform delta (Homo sapiens) (P48730 whole entry, looked up, canonical isoform): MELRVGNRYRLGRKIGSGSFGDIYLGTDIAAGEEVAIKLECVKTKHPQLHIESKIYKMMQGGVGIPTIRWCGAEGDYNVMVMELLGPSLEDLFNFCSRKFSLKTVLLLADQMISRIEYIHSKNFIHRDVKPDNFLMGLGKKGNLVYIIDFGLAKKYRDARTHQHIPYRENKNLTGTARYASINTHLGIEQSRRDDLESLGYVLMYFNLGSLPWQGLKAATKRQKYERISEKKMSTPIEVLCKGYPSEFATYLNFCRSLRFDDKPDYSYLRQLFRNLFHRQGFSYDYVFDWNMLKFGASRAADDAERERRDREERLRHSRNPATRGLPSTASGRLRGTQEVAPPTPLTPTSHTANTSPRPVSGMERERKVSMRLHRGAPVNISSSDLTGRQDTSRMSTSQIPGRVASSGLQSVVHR
Sequence of Mitogen-activated protein kinase 13 (Homo sapiens) (O15264 whole entry): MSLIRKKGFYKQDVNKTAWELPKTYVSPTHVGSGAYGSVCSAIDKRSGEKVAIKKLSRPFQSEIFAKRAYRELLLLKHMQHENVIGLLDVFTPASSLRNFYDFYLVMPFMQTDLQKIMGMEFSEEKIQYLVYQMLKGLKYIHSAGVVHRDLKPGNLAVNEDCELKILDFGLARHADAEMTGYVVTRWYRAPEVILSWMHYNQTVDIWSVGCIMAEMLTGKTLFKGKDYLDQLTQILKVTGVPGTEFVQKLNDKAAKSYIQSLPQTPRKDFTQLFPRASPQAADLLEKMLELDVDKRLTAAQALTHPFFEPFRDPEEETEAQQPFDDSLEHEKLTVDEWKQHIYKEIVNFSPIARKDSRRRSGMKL
Sequence of Ribosomal protein S6 kinase alpha-2 (Homo sapiens) (Q15349 whole entry, canonical isoform): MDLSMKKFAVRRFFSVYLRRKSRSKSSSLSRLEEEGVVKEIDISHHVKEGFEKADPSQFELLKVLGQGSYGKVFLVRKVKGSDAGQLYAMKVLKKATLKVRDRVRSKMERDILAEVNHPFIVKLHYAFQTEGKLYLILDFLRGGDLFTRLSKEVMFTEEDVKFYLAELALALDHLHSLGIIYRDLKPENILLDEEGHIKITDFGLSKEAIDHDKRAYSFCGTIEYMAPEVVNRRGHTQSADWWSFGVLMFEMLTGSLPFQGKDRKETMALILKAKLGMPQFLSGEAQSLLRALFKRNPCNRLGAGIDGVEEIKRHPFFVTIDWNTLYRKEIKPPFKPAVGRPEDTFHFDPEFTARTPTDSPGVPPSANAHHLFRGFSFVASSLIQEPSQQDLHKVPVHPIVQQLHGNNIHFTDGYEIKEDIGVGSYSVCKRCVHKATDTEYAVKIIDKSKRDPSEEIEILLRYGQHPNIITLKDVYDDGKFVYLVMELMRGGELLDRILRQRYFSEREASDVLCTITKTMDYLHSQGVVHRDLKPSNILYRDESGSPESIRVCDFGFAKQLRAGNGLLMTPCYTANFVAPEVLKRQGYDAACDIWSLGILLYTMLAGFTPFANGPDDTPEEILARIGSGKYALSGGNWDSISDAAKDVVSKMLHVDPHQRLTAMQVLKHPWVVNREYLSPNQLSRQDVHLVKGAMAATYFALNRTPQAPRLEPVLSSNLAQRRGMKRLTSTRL
Sequence of Serine/threonine-protein kinase PLK2 (Homo sapiens) (Q9NYY3 whole entry, looked up): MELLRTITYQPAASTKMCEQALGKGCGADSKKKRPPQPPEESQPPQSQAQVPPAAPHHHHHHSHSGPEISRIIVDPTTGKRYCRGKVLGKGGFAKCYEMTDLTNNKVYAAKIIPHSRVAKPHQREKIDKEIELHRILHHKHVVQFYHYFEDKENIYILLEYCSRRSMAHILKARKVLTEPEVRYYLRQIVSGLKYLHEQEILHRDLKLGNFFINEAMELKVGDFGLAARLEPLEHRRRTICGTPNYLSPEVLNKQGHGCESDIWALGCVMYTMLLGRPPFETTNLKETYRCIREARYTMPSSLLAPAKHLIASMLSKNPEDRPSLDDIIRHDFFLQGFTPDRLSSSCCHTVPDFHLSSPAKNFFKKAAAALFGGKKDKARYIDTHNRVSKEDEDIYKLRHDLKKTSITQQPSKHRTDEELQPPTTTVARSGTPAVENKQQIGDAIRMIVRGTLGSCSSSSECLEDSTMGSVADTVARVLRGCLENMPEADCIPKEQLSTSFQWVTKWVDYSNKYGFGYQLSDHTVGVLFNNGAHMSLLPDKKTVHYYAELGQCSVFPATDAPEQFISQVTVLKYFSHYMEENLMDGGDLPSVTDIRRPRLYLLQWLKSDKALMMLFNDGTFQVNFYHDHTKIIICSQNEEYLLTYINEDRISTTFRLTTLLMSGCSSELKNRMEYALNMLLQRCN
Sequence of Phosphatidylinositol 4,5-bisphosphate 3-kinase catalytic subunit alpha isoform (Homo sapiens), P42336 [M1043I] (P42336 whole entry M1043I, canonical isoform): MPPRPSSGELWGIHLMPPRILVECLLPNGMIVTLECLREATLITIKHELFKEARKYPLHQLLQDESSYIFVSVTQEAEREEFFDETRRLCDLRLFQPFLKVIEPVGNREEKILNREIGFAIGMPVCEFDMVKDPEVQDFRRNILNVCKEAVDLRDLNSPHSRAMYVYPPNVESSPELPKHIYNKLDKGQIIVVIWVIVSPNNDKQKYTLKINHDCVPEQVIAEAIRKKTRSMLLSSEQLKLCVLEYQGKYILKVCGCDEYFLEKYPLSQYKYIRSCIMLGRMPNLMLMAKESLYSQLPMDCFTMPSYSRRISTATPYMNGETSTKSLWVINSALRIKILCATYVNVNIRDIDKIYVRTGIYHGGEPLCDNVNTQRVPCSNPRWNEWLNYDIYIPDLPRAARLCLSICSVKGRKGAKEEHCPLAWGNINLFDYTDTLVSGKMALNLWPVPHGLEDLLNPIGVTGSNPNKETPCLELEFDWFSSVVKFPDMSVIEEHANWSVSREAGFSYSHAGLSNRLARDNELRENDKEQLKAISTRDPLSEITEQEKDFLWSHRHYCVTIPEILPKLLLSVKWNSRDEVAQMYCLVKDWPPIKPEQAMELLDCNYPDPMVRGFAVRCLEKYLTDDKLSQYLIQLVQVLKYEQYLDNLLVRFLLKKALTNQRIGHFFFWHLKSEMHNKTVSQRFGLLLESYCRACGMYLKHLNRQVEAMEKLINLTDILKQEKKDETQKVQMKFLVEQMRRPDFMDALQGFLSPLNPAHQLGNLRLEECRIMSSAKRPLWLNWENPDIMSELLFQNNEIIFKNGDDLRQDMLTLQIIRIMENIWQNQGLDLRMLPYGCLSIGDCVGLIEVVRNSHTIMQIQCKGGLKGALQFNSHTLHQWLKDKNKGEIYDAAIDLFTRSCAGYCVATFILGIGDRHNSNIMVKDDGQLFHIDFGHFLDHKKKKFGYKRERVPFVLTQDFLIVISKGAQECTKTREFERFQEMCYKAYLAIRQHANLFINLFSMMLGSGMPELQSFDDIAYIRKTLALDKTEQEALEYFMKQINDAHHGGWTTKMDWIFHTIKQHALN
Sequence of Serine/threonine-protein kinase NIM1 (Homo sapiens) (Q8IY84 whole entry): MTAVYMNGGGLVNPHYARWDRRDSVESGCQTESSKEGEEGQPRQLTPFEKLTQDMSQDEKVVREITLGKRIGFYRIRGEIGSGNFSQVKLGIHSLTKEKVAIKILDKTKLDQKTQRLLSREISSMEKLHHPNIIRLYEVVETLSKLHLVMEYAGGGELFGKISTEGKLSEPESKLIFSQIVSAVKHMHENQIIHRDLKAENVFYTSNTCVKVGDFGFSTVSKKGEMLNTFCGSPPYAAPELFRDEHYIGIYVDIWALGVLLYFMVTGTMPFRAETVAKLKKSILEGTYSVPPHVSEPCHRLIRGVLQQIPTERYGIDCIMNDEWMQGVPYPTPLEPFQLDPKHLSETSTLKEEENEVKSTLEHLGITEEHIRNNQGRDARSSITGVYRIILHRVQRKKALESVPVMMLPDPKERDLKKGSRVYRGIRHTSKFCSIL
Sequence of Cyclin-dependent kinase 4 (Homo sapiens) (P11802 whole entry): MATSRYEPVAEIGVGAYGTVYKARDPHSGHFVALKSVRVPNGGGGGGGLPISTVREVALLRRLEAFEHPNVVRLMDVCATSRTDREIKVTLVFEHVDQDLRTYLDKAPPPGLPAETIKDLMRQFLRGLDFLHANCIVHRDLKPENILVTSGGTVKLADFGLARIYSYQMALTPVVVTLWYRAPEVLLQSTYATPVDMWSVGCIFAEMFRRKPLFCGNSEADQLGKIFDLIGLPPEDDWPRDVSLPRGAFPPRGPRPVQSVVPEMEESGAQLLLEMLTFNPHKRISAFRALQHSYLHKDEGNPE
Sequence of Alpha-2A adrenergic receptor (Homo sapiens) (P08913 whole entry): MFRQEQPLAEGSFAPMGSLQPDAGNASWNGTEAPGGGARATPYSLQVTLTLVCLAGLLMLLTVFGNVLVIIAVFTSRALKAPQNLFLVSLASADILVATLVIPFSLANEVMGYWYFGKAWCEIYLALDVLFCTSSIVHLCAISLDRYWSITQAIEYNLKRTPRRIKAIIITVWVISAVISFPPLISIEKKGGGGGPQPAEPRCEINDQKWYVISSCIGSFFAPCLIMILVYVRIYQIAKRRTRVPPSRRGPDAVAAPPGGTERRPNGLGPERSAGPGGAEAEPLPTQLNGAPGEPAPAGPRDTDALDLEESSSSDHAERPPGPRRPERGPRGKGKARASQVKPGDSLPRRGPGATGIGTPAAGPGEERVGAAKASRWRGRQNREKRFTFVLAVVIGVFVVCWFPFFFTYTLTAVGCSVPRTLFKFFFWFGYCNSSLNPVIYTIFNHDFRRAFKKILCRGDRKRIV

SMILES: Cc1ccc(-c2cnc([C@@]3(O)CC[C@H](C(=O)O)C(C)(C)C3)s2)cc1Nc1cccc(C(F)(F)F)n1 [MRL-SYKi-NC]
- residual activity [1]: 93.6%
- residual activity [2]: 80%
- residual activity [3]: 76.6%
- residual activity [4]: 95.4%
- residual activity [5]: 100%
- residual activity [6]: 77.8%
- residual activity [7]: 98.6%
- residual activity [8]: 100%
- residual activity [9]: 92.5%
- residual activity [10]: 90.4%
- IC50 (Mast cell): > 10 µM (not active)
- inhibition [11]: -5.83%
- residual activity [12]: 84.8%
- residual activity [13]: 100%
- residual activity [14]: 96.9%
- residual activity [15]: 97%
- residual activity [16]: 96.6%
- residual activity [17]: 100%
- residual activity [18]: 89.7%
- residual activity [19]: 69.1%
- residual activity [20]: 81.4%
- residual activity [21]: 74.6%
- inhibition [22]: -9.54%
- residual activity [23]: 89.3%
- residual activity [24]: 100%
- residual activity [25]: 74.6%
- residual activity [26]: 78%
- residual activity [27]: 100%
- residual activity [28]: 100%
- residual activity [29]: 92.1%
- inhibition [30]: 15.7%
- inhibition [31]: -1.96%
- residual activity [32]: 100%
- residual activity [33]: 100%
- residual activity [34]: 100%
- residual activity [35]: 73.8%
- inhibition [36]: 18.6%
- inhibition [37]: 17.5%
- residual activity [38]: 87.6%
- residual activity [39]: 100%
- inhibition [40]: 34.5%
- residual activity [41]: 78.6%
- residual activity [42]: 100%
- residual activity [43]: 90.2%
- residual activity [44]: 88.9%
- residual activity [45]: 69.2%

SMILES: Cc1cc(Nc2nccc(C)n2)cc(-c2cnc([C@@]3(O)CC[C@H](C(=O)O)C(C)(C)C3)s2)c1 [MRL-SYKi]
- residual activity [1]: 96.4%
- residual activity [2]: 82.6%
- residual activity [3]: 75.3%
- residual activity [4]: 100%
- residual activity [5]: 100%
- residual activity [6]: 91.6%
- residual activity [7]: 100%
- residual activity [8]: 100%
- residual activity [9]: 100%
- residual activity [10]: 61.8%
- IC50 (Mast cell): 0.038 µM (active)
- inhibition [11]: 30.6%
- residual activity [12]: 52.3%
- residual activity [13]: 100%
- residual activity [14]: 85.6%
- residual activity [15]: 100%
- residual activity [16]: 45.5%
- residual activity [17]: 100%
- residual activity [18]: 100%
- residual activity [19]: 100%
- residual activity [20]: 93.1%
- residual activity [21]: 97.5%
- inhibition [22]: -6.05%
- residual activity [23]: 100%
- residual activity [24]: 93.6%
- residual activity [25]: 100%
- residual activity [26]: 100%
- residual activity [27]: 81.6%
- residual activity [28]: 87%
- residual activity [29]: 100%
- inhibition [30]: 3.34%
- inhibition [31]: -3.85%
- residual activity [32]: 76.9%
- residual activity [33]: 100%
- residual activity [34]: 100%
- residual activity [35]: 100%
- inhibition [36]: 8.85%
- inhibition [37]: -0.0778%
- residual activity [38]: 100%
- residual activity [39]: 92.4%
- inhibition [40]: -2.14%
- residual activity [41]: 34.7%
- residual activity [42]: 97.9%
- residual activity [43]: 99.9%
- residual activity [44]: 100%
- residual activity [45]: 100%
